# Experimental data: patent US20160311812A1, “ADENOSINE A1 AGONISTS AS MEDICAMENTS FOR KIDNEY DISORDERS” (BAYER PHARMA AKTIENGESELLSCHAFT, priority 2013, published 2016)
# How the values were obtained:
# [1] = test system: unilaterally nephrectomized SHR; test: Functional and structural renal dysfunction in unilaterally nephrectomized spontaneously hypertensive rats; format: in vivo, rat; conditions: Group 5: SNX + 3.0 mg/kg body weight/day p.o., 4 weeks
# Excerpt: (§1) B-4. Effects of Partial A1 Agonists on Renal and Cardiac Function in Unilaterally Nephrectomized and Spontaneously Hypertensive Rats (Example 2 for Chronic Kidney Disorders)
# (§2) Unilaterally nephrectomized, spontaneously hypertensive rats (SHR) are an established animal model for investigating the development and progression of hypertensive damage of the glomeruli in the remaining kidney [H. Kinuno et al., “Effects of uninephrectomy on renal structural properties in spontaneously hypertensive rats”, Clin and Exp Pharmacol and Physiol 2005, 32, 173-178]. […] Furthermore, renal excretion of substances usually eliminated in the urine, such as creatinine and urea, is reduced and the electrolyte metabolism is disturbed, the latter being associated with volume retention.
# (§3) Procedure: male SHR rats (180-220 g) from Taconic had the left kidney removed in one session (=UNX). Normotensive Wistar Kyoto rats (WKY) from Taconic served as control. The following groups, each with 12 rats per group, were investigated:
# (§4) Group 2 UNX+placebo (60 g glycerol+100 g water+969 g PEG-400)
# (§5) Group 3 UNX+10 mg/kg body weight/day enalapril (reference therapy, in the drinking water)
# (§6) Group 4 SNX+1.0 mg/kg body weight/day partial A1 EXAMPLE 1, p.o. in placebo
# (§7) Group 5 SNX+3.0 mg/kg body weight/day partial A1 EXAMPLE 4, p.o. in placebo
# (§8) Three weeks after unilateral nephrectomy, the SHRs developed manifest hypertensive damage of the glomeruli in the remaining kidney, from this time point on the rats were treated for a further four weeks corresponding to the groups given above. At the end of the protocol, the following samples were obtained/measurements were carried out: eight-hour urine collection, invasive measurement of systolic and diastolic left ventricular function, and TaqMan analyses of renal injury markers in the renal cortex.
# [2] = test system: unilaterally nephrectomized SHR; test: Functional and structural myocardial dysfunction in unilaterally nephrectomized spontaneously hypertensive rats; format: in vivo, rat; conditions: Group 5: SNX + 3.0 mg/kg body weight/day p.o., 4 weeks
# Excerpt: as §1, §2, §3, §4, §5, §6, §7, §8
# [3] = test system: 5/6 nephrectomy rat model; test: Left-ventricular diastolic dysfunction under isoprenaline infusion in 5/6 nephrectomized rats; format: in vivo; conditions: 4 weeks
# Excerpt: (§9) B-3. Effects of Partial A1 Agonists on Renal and Cardiac Function in 5/6 Nephrectomized Rats (Example 1 for Chronic Kidney Disorder)
# (§10) 5/6 nephrectomy in the rat, in which one kidney and the renal cortex of the second kidney are surgically removed (=5/6 of functional kidney tissue) is an established animal model for interstitial renal fibrosis and chronic renal insufficiency [C. Fleck et al., “Suitability of 5/6 nephrectomy (5/6NX) for the induction of interstitial renal fibrosis in rats Influence of sex, strain, and surgical procedure”, Exp. Tox. Pathology 2006, 57, 195-205]. The model is characterized by progressive proteinuria, disturbed tubular electrolyte transport, a reduced glomerular filtration rate, an increase in urinary output, interstitial fibrosis with reactively occurring lymphocyte infiltrates, glomerulosclerosis and tubular atrophy. The level of proteinuria is a specific index of the renal function prognosis: the higher the proteinuria, the greater is the functional and structural kidney injury and therefore progression of chronic to terminal renal insufficiency (uraemia). During monitoring of therapy, e.g. with the ACE inhibitor enalapril, the course of proteinuria provides information on the functional and structural response to the therapy and thus on the renal function prognosis. As a result of the renal insufficiency and accumulation of umemic toxins, in the animals there is secondary development of a umemic cardiomyopathy, depending on the severity associated with hypertension, increased heart rate, reduced parasympathetic tone, myocardial, left-ventricular hypertrophy and fibrosis, diastolic dysfunction and an increased prevalence of arrhythmias [Svilerova et al. 2010 Physiol Res 59: S81-S88).
# (§11) Procedure: male Wistar:WU rats (210-250 g) from Charles River had the left kidney and the renal cortex of the right kidney removed (=SNX) in one session; sham-operated rats served as control group (=SOP). The following groups, each with 12 rats per group, were investigated:
# (§12) Group 2 SNX+placebo (60 g glycerol+100 g water+969 g PEG-400)
# (§13) Group 3 SNX+10 mg/kg body weight/day enalapril (reference therapy, in the drinking water)
# (§14) Group 4 SNX+0.1 mg/kg body weight/day partial A1 agonist EXAMPLE 1, p.o. in placebo
# (§15) Group 5 SNX+1.0 mg/kg body weight/day partial A1 agonist EXAMPLE 1, p.o. in placebo
# (§16) Group 6 SNX+0.3 mg/kg body weight/day partial A1 agonist EXAMPLE 4, p.o. in placebo
# (§17) Group 7 SNX+3.0 mg/kg body weight/day partial A1 agonist EXAMPLE 4, p.o. in placebo
# (§18) Three weeks after 5/6 nephrectomy, the rats developed manifest proteinuria, from this time point the rats were treated for a further four weeks corresponding to the groups stated above. At the end of the protocol, the following samples were obtained/measurements were carried out: eight-hour urine collection with determination of the concentration of hFABP in the urine by ELISA (Rat/Mouse h-FABP ELISA, Hycultbiotech), as marker for end organ damage, invasive measurement of the isoprenaline-induced increase (cumulatively 12.5 ng-250 ng/kg isoprenaline, i.v.) in systolic and diastolic left ventricular function, and TaqMan analyses of renal injury markers in the renal cortex.
# [4] = test system: 5/6 nephrectomy rat model; test: Functional and structural renal dysfunction in 5/6 nephrectomized rats; format: in vivo; conditions: 4 weeks; for End organ injury marker concentration in the urine: hFABP / End organ injury marker concentration in the urine: hFABP per creatinine: ELISA; for Kidney injury marker-1 [gene expression] / Lipocalin-2 [gene expression] / Osteopontin [gene expression]: renal cortex
# Excerpt: as §9, §10, §11, §12, §13, §14, §15, §16, §17, §18
# [5] = Group 6: SNX + 0.3 mg/kg body weight/day p.o.
# [6] = Group 7: SNX + 3.0 mg/kg body weight/day p.o.
smiles,measurement,setting,value
"N#Cc1c(SCc2csc(-c3ccc(Cl)cc3)n2)nc(N2CCCC2)c(C#N)c1-c1ccc(OCCO)cc1 [EXAMPLE 4, 2-({[2-(4-Chlorophenyl)-1,3-thiazol-4-yl]methyl}sulphanyl)-4-[4-(2-hydroxyethoxy)phenyl]-6-(pyrrolidin-1-yl)pyridine-3,5-dicarbonitrile]",P-creatinine,[1],58 ± 0.6 µmol/L
same,P-urea,[1],8.7 ± 0.2 mmol/L
same,U-creatinine,[1],3.4 ± 0.9 μmol/ml urine/kg BW/h
same,U-protein,[1],0.96 ± 0.26 μmol/ml urine/kg BW/h
same,U-sodium,[1],46 ± 11 μmol/ml urine/kg BW/h
same,U-urea,[1],337 ± 89 μmol/ml urine/kg BW/h
same,Urine volume,[1],1.8 ± 0.2 ml/kg BW/h
same,CYR61 [gene expression],[1]; renal cortex,274 ± 21 rel. expression
same,Lipocalin-2 [gene expression],[1]; renal cortex,119 ± 9 rel. expression
same,Diastolic blood pressure,[2],144 ± 6 mmHg
same,Heart rate,[2],326 ± 9 beats/min
same,"Left ventricular hypertrophy (LVS/RV ratio, mg/mg)",[2],4.5 ± 0.2 mg/mg
same,Left-ventricular end-diastolic pressure,[2],10.22 ± 1.6 mmHg
same,Left-ventricular pressure,[2],196 ± 5 mmHg
same,Pressure decrease over time,[2],−10680 ± 524 mmHg/s
same,Pressure increase over time,[2],9419 ± 383 mmHg/s
same,Systolic blood pressure,[2],205 ± 5 mmHg
same,left-ventricular pressure decrease as a function of time,"[3]; isoprenaline 0 ng/kg body weight, Group 6: SNX + 0.3 mg/kg body weight/day p.o.",6518 ± 221 mmHg/s
same,left-ventricular pressure decrease as a function of time,"[3]; isoprenaline 0 ng/kg body weight, Group 7: SNX + 3.0 mg/kg body weight/day p.o.",6884 ± 383 mmHg/s
same,left-ventricular pressure decrease as a function of time,"[3]; isoprenaline 12.5 ng/kg body weight, Group 6: SNX + 0.3 mg/kg body weight/day p.o.",7733 ± 233 mmHg/s
same,left-ventricular pressure decrease as a function of time,"[3]; isoprenaline 12.5 ng/kg body weight, Group 7: SNX + 3.0 mg/kg body weight/day p.o.",8369 ± 395 mmHg/s
same,left-ventricular pressure decrease as a function of time,"[3]; isoprenaline 25 ng/kg body weight, Group 6: SNX + 0.3 mg/kg body weight/day p.o.",8001 ± 224 mmHg/s
same,left-ventricular pressure decrease as a function of time,"[3]; isoprenaline 25 ng/kg body weight, Group 7: SNX + 3.0 mg/kg body weight/day p.o.",8557 ± 396 mmHg/s
same,left-ventricular pressure decrease as a function of time,"[3]; isoprenaline 50 ng/kg body weight, Group 6: SNX + 0.3 mg/kg body weight/day p.o.",8763 ± 195 mmHg/s
same,left-ventricular pressure decrease as a function of time,"[3]; isoprenaline 50 ng/kg body weight, Group 7: SNX + 3.0 mg/kg body weight/day p.o.",9100 ± 341 mmHg/s
same,left-ventricular pressure decrease as a function of time,"[3]; isoprenaline 100 ng/kg body weight, Group 6: SNX + 0.3 mg/kg body weight/day p.o.",9621 ± 212 mmHg/s
same,left-ventricular pressure decrease as a function of time,"[3]; isoprenaline 100 ng/kg body weight, Group 7: SNX + 3.0 mg/kg body weight/day p.o.",10263 ± 294 mmHg/s
same,left-ventricular pressure decrease as a function of time,"[3]; isoprenaline 250 ng/kg body weight, Group 6: SNX + 0.3 mg/kg body weight/day p.o.",9968 ± 162 mmHg/s
same,left-ventricular pressure decrease as a function of time,"[3]; isoprenaline 250 ng/kg body weight, Group 7: SNX + 3.0 mg/kg body weight/day p.o.",10385 ± 352 mmHg/s
same,P-creatinine,[4]; [5],64 ± 1 µmol/L
same,P-urea,[4]; [5],11 ± 0.3 mmol/L
same,U-creatinine,[4]; [5],3.1 ± 0.2 μmol/ml urine/kg BW/h
same,U-protein,[4]; [5],1.70 ± 0.29 μmol/ml urine/kg BW/h
same,U-sodium,[4]; [5],19 ± 3 μmol/ml urine/kg BW/h
same,U-urea,[4]; [5],330 ± 25 μmol/ml urine/kg BW/h
same,Urine volume,[4]; [5],1.8 ± 0.1 ml/kg BW/h
same,End organ injury marker concentration in the urine: hFABP,[4]; [5],3125 ± 497 pg hFABP/ml urine/h
same,End organ injury marker concentration in the urine: hFABP per creatinine,[4]; [5],386 ± 57 pg hFABP/μmol creatinine
same,Kidney injury marker-1 [gene expression],[4]; [5],68 ± 14 rel. expression
same,Lipocalin-2 [gene expression],[4]; [5],340 ± 49 rel. expression
same,Osteopontin [gene expression],[4]; [5],6882 ± 1240 rel. expression
same,P-creatinine,[4]; [6],63 ± 1 µmol/L
same,P-urea,[4]; [6],11 ± 0.3 mmol/L
same,U-creatinine,[4]; [6],2.7 ± 0.3 μmol/ml urine/kg BW/h
same,U-protein,[4]; [6],0.97 ± 0.12 μmol/ml urine/kg BW/h
same,U-sodium,[4]; [6],43 ± 5 μmol/ml urine/kg BW/h
same,U-urea,[4]; [6],281 ± 30 μmol/ml urine/kg BW/h
same,Urine volume,[4]; [6],1.8 ± 0.2 ml/kg BW/h
same,End organ injury marker concentration in the urine: hFABP,[4]; [6],1706 ± 249 pg hFABP/ml urine/h
same,End organ injury marker concentration in the urine: hFABP per creatinine,[4]; [6],218 ± 39 pg hFABP/μmol creatinine
same,Kidney injury marker-1 [gene expression],[4]; [6],56 ± 18 rel. expression
same,Lipocalin-2 [gene expression],[4]; [6],283 ± 45 rel. expression
same,Osteopontin [gene expression],[4]; [6],6340 ± 1656 rel. expression
